ChEMBL document CHEMBL6153079, “Discovery of noncovalent diaminopyrimidine-based Inhibitors for glioblastoma via a dual FAK/DNA targeting strategy” (Eur J Med Chem, 2025)
Activity calls are given as the source filed them. The rule behind the calls is not given here.

How the values were obtained:
[1] = Toxicity in BALB/c mouse implanted with human U-87 MG cells assessed as liver damage at 25 mg/kg, ip administered once daily for 15 days by H and E staining based analysis; format: organism-based; settings: in vivo, 360 h, time 15 day
U-87 MG [2] = assay: Induction of cell cycle arrest in human U-87 MG cells assessed as accumulation of cells at […] at 2 uM by propidium Iodide staining based flow cytometry analysis (reference value: 1.67%); format: functional, U-87MG ATCC
U-87 MG [3] = assay: Antiproliferative activity against human U-87 MG assessed as cell growth inhibition at 0.1 to 2 uM; format: functional, cell-based; settings: U-87MG ATCC
Focal adhesion kinase 1 [4] = target: T1, Focal adhesion kinase 1 (Homo sapiens, UniProt Q05397); assay: Inhibition of FAK (unknown origin) preincubated for 10 mins followed by ATP and substrate addition and measured after 50 mins by HTRF analysis
Target sequence in this assay (Q05397 whole entry): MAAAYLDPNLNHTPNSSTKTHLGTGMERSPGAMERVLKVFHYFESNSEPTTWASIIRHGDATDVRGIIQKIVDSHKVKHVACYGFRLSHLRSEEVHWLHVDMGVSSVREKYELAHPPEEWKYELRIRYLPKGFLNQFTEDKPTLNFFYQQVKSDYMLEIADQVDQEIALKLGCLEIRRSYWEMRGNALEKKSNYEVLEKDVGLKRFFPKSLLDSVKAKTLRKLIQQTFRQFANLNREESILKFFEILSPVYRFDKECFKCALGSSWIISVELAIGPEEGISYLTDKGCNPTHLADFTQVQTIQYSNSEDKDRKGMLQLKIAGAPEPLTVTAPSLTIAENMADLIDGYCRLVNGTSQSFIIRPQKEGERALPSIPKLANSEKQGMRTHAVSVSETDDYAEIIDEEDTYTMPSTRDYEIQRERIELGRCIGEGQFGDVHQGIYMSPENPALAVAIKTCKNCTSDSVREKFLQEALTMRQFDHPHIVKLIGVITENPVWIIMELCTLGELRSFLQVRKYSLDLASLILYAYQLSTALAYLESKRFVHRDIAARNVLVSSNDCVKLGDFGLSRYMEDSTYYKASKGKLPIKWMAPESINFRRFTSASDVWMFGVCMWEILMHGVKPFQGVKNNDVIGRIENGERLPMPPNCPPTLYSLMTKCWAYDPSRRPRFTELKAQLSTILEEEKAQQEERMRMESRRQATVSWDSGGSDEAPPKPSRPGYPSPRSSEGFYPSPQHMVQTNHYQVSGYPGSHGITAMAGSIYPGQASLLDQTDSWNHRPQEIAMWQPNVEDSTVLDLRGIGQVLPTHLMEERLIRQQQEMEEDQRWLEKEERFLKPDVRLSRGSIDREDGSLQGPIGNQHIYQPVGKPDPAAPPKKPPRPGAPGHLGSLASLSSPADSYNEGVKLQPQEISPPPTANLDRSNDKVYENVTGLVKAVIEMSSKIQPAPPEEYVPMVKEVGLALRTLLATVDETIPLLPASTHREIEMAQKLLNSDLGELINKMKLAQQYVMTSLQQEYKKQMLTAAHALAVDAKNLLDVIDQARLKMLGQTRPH

[5] = Toxicity in BALB/c mouse implanted with human U-87 MG cells assessed as lung damage at 5 mg/kg, ip administered once daily for 15 days by H and E staining based analysis; format: organism-based; settings: in vivo, 360 h, time 15 day
[6] = Toxicity in BALB/c mouse implanted with human U-87 MG cells assessed as tubular epithelial degeneration in renal cortex at 25 mg/kg, ip administered once daily for 15 days by H and E staining based analysis; format: organism-based; settings: in vivo, 360 h, time 15 day
[7] = Toxicity in BALB/c mouse implanted with human U-87 MG cells assessed as mortality at 5 to 25 mg/kg, ip administered once daily for 15 days by H and E staining based analysis; format: organism-based; settings: in vivo, 360 h, dose 5-25 mg/kg, time 15 day
U-87 MG [8] = assay: Induction of apoptosis in human U-87 MG cells assessed as late apoptotic cells at 0.02 uM measured upto 24 hrs by Annexin V-FITC/PI staining based flow cytometry analysis (reference value: 0.54%); format: functional, U-87MG ATCC
U-87 MG [9] = assay: Induction of cell cycle arrest in human U-87 MG cells assessed as accumulation of cells at G0/G1 phase at 0.01 uM by propidium Iodide staining based flow cytometry analysis (reference value: 80.68%); format: functional, U-87MG ATCC
U-87 MG [10] = assay: Antiproliferative activity against human U-87 MG assessed as inhibition of cell growth at 0.005 uM by clonogenic assay relative to control; format: functional, U-87MG ATCC
U-87 MG [11] = assay: Inhibition of AKT phosphorylation in human U-87 MG cells at 0.05 uM incubated for 24 hrs by Western blot analysis; format: cell-based
U-87 MG [12] = assay: Induction of apoptosis in human U-87 MG cells assessed as late apoptotic cells at 0.2 uM measured upto 24 hrs by Annexin V-FITC/PI staining based flow cytometry analysis (reference value: 0.54%); format: functional, U-87MG ATCC
U-87 MG [13] = assay: Induction of apoptosis in human U-87 MG cells assessed as late apoptotic cells at 0.01 uM measured upto 24 hrs by Annexin V-FITC/PI staining based flow cytometry analysis (reference value: 0.54%); format: functional, U-87MG ATCC
U-87 MG [14] = assay: Induction of apoptosis in human U-87 MG cells assessed as early apoptotic cells at 0.2 uM measured upto 24 hrs by Annexin V-FITC/PI staining based flow cytometry analysis (reference value: 0.45%); format: functional, U-87MG ATCC
U-87 MG [15] = assay: Induction of apoptosis in human U-87 MG cells assessed as viable cells at 0.02 uM measured upto 24 hrs by Annexin V-FITC/PI staining based flow cytometry analysis (reference value: 98.4%); format: functional, U-87MG ATCC; settings: read-out: Activity
U-87 MG [16] = assay: Induction of apoptosis in human U-87 MG cells assessed as necrotic cells at 2 uM measured upto 24 hrs by Annexin V-FITC/PI staining based flow cytometry analysis (reference value: 0.62%); format: functional, U-87MG ATCC
U-87 MG [17] = assay: Antitumor activity against human U-87 MG cells xenografted in BALB/c mouse assessed as inhibition of tumor growth at 5 mg/kg, ip administered once daily for 15 days; format: functional, U-87MG ATCC; settings: 360 h, time 15 day, read-out: TGI
U-87 MG [18] = assay: Induction of cell cycle arrest in human U-87 MG cells assessed as accumulation of cells at S phase at 2 uM by propidium Iodide staining based flow cytometry analysis (reference value: 9.59%); format: functional, U-87MG ATCC
Focal adhesion kinase 1 [19] = target: T1, Focal adhesion kinase 1; assay: Inhibition of FAK phosphorylation in human U-87 MG cells at 0.8 uM incubated for 24 hrs by Western blot analysis; format: cell-based
Target sequence in this assay (Q05397 2-1052 limits assumed): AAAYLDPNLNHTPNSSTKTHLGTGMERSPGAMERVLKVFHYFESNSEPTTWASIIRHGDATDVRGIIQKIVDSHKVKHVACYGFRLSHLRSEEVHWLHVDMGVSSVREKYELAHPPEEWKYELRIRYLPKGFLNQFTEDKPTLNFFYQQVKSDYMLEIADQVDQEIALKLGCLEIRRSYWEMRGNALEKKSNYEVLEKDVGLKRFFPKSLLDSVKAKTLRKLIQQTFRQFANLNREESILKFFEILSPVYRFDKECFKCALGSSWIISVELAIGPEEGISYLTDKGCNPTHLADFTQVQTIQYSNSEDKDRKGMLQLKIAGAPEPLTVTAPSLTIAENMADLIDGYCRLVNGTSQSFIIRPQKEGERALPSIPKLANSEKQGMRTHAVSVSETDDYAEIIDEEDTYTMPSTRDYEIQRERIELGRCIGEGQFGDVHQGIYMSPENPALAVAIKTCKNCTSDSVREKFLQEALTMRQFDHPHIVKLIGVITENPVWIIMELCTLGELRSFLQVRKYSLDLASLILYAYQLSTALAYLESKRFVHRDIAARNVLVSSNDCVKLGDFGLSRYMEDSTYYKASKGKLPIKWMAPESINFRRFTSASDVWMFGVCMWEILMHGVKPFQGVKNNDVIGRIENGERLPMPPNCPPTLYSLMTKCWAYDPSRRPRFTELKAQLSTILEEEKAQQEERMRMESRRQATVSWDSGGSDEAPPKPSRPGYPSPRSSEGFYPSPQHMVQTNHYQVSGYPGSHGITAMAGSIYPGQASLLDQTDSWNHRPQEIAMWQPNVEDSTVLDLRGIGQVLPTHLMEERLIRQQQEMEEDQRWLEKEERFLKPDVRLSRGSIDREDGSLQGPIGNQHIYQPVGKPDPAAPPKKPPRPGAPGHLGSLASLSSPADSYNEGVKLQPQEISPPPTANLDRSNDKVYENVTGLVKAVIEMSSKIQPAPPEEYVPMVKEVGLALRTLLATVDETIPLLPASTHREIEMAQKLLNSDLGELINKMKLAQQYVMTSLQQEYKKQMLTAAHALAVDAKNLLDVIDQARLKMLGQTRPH

U-87 MG [20] = assay: Induction of apoptosis in human U-87 MG cells assessed as […] in Bcl-xL level at 0.05 to 0.8 uM incubated for 24 hrs by Western blot analysis; format: functional, cell-based; settings: U-87MG ATCC, dose 0.05-0.8 µM
U-251 = assay: Antiproliferative activity against human U-251 assessed as cell viability incubated for 48 hrs by MTT assay; format: functional, cell-based; settings: U-251, 48 h
U-87 MG [21] = assay: Induction of cell cycle arrest in human U-87 MG cells assessed as accumulation of cells at S phase at 0.02 uM by propidium Iodide staining based flow cytometry analysis (reference value: 9.59%); format: functional, U-87MG ATCC
[22] = Toxicity in BALB/c mouse implanted with human U-87 MG cells assessed as tubular epithelial degeneration in renal cortex at 5 mg/kg, ip administered once daily for 15 days by H and E staining based analysis; format: organism-based; settings: in vivo, 360 h, time 15 day
Focal adhesion kinase 1 [23] = target: T1, Focal adhesion kinase 1; assay: Inhibition of FAK (unknown origin) at 10 nM relative to control
Target sequence in this assay (Q05397 2-1052 limits assumed): as above

U-87 MG [24] = assay: Antitumor activity against human U-87 MG cells xenografted in BALB/c mouse assessed as inhibition of tumor growth at 25 mg/kg, ip administered once daily for 15 days; format: functional, U-87MG ATCC; settings: 360 h, time 15 day, read-out: TGI
U-87 MG [25] = assay: Antiproliferative activity against human U-87 MG assessed as cell viability incubated for 48 hrs by MTT assay; format: functional, cell-based, U-87MG ATCC
Focal adhesion kinase 1 [26] = target: T1, Focal adhesion kinase 1; assay: Inhibition of FAK (unknown origin) at 50 nM relative to control
Target sequence in this assay (Q05397 2-1052 limits assumed): as above

U-87 MG [27] = assay: Induction of cell cycle arrest in human U-87 MG cells assessed as accumulation of cells at S phase at 0.2 uM by propidium Iodide staining based flow cytometry analysis (reference value: 9.59%); format: functional, U-87MG ATCC
[28] = Toxicity in BALB/c mouse implanted with human U-87 MG cells assessed as spleen damage at 5 mg/kg, ip administered once daily for 15 days by H and E staining based analysis; format: organism-based; settings: in vivo, 360 h, time 15 day
U-87 MG [29] = assay: Induction of cell cycle arrest in human U-87 MG cells assessed as accumulation of cells at G0/G1 phase at 0.02 uM by propidium Iodide staining based flow cytometry analysis (reference value: 80.68%); format: functional, U-87MG ATCC
U-87 MG [30] = assay: Induction of cell cycle arrest in human U-87 MG cells assessed as accumulation of cells at G0/G1 phase at 0.2 uM by propidium Iodide staining based flow cytometry analysis (reference value: 80.68%); format: functional, U-87MG ATCC
[31] = Toxicity in BALB/c mouse implanted with human U-87 MG cells assessed as tolerability at 5 to 25 mg/kg, ip administered once daily for 15 days by H and E staining based analysis; format: organism-based; settings: in vivo, 360 h, dose 5-25 mg/kg, time 15 day
U-87 MG [32] = assay: Induction of DNA damage in human U-87 MG cells assessed as comet tail moment at 0.1 to 2 uM incubated for 2.5 to 3 hrs by comet assay; format: functional, U-87MG ATCC; settings: time 2.5-3 hrs
U-87 MG [33] = assay: Induction of apoptosis in human U-87 MG cells assessed as necrotic cells at 0.2 uM measured upto 24 hrs by Annexin V-FITC/PI staining based flow cytometry analysis (reference value: 0.62%); format: functional, U-87MG ATCC
U-87 MG [34] = assay: Induction of cell cycle arrest in human U-87 MG cells assessed as accumulation of cells at G2M phase at 0.2 uM by propidium Iodide staining based flow cytometry analysis (reference value: 9.73%); format: functional, U-87MG ATCC

Which Activity [1] does the source give for `CNC(=O)c1ccccc1Nc1nc(Nc2ccc(N3CCN(CCOC(=O)CCCc4ccc(N(CCCl)CCCl)cc4)CC3)cc2)ncc1C(F)(F)F` here?
Its Activity is “Non-toxic”.

And the Activity (U-87 MG [2])?
Its Activity is 1.88%.

And the Activity (U-87 MG [3])?
Its Activity is “Active”.

What about the IC50 (Focal adhesion kinase 1 [4]) of the same molecule?
The IC50 was 0.000815 µM.

What about the Activity [5] of the same molecule?
Its Activity is “Non-toxic”.

What about the Activity [6] of the same molecule?
The Activity was “Non-toxic”.

And the Activity [7]?
Its Activity is “Non-toxic”.

What about the Activity (U-87 MG [8]) of the same molecule?
Its Activity is 4.8%.

And the Activity (U-87 MG [9])?
The Activity was 69.64%.

What about the inhibition at 0.005 µM (U-87 MG [10]) of the same molecule?
Its inhibition at 0.005 µM is 73%.

And the inhibition (U-87 MG [11])?
The inhibition was “Active”.

And the Activity (U-87 MG [12])?
Its Activity is 5.65%.

What about the Activity (U-87 MG [13]) of the same molecule?
The Activity was 4.61%.

And the Activity (U-87 MG [14])?
Its Activity is 28.3%.

What about the viability at 0.02 µM (U-87 MG [15]) of the same molecule?
The viability at 0.02 µM was 63.8%.

And the Activity (U-87 MG [16])?
Its Activity is 2.16%.

What about the inhibition in vivo at 5 mg/kg (U-87 MG [17]) of the same molecule?
The inhibition in vivo at 5 mg/kg was 63.7%.

And the Activity (U-87 MG [18])?
The Activity was 10.99%.

And the inhibition (Focal adhesion kinase 1 [19])?
Its inhibition is 100%.

And the Activity (U-87 MG [20])?
The Activity was “Active”.

What about the IC50 (U-251) of the same molecule?
The IC50 was 0.02 µM.

And the Activity (U-87 MG [21])?
Its Activity is 16.42%.

What about the Activity [22] of the same molecule?
The Activity was “Non-toxic”.

What about the inhibition (Focal adhesion kinase 1 [23]) of the same molecule?
The inhibition was 98.6%.

And the inhibition in vivo at 25 mg/kg (U-87 MG [24])?
Its inhibition in vivo at 25 mg/kg is 82.5%.

And the IC50 (U-87 MG [25])?
Its IC50 is 0.015 µM.

And the inhibition (Focal adhesion kinase 1 [26])?
The inhibition was 100%.

And the Activity (U-87 MG [27])?
The Activity was 11.41%.

And the Activity [28]?
Its Activity is “Non-toxic”.

And the Activity (U-87 MG [29])?
Its Activity is 62.68%.

And the Activity (U-87 MG [30])?
Its Activity is 44.98%.

And the Activity [31]?
The Activity was “Non-toxic”.

What about the Activity (U-87 MG [32]) of the same molecule?
The Activity was 11.6.

And the Activity (U-87 MG [33])?
Its Activity is 2.31%.

What about the Activity (U-87 MG [34]) of the same molecule?
The Activity was 43.61%.
